The results in this text go back to patent publication US20240270821A1, “GIP/GLP1/GCG TRI-RECEPTOR AGONISTS AND USES THEREOF” (priority 2023, published 2024).

For orientation: EC50 means the concentration that produces a half-maximal response.

Holding throughout (assay type): cell-based
The target in assay [1] is T1, hGLP-1R (Homo sapiens, UniProt P43220). Put plainly: Functional cAMP activation in the presence of 0.1% casein (no HSA). Conditions: read-out: Relative cAMP EC50, hGLP-1R.
For assay [2], the target named is T1, hGLP-1R. The assay can be described thus: Functional cAMP activity in the presence of 1% HSA. The note with it: read-out: cAMP Rel EC50, hGLP-1R.
The target of assay [3] is human GcgR (Homo sapiens, UniProt P47871). Put plainly: Functional cAMP activity in the presence of 1% HSA. The note with it: read-out: cAMP Rel EC50, hGcgR.
The target in assay [4] is hGcgR (Homo sapiens, UniProt P47871). Put plainly: Functional cAMP activation in the presence of 0.1% casein (no HSA). The note with it: read-out: Relative cAMP EC50, hGcgR.
Assay [5] concerns the target T2, hGIPR (Homo sapiens, UniProt P48546).
T2 sequence (P48546 22-466): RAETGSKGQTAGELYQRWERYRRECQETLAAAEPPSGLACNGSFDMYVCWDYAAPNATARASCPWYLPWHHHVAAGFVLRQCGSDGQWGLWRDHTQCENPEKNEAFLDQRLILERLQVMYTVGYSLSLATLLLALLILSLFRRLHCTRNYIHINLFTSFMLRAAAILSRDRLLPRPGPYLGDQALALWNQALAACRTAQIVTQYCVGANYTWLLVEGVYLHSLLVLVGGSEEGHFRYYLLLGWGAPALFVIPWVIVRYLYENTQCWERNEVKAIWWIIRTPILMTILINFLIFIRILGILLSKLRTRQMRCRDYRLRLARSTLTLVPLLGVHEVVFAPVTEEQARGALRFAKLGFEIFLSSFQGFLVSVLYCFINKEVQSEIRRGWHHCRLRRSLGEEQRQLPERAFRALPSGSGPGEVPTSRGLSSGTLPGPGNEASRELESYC
The assay is described as above. The note with it: read-out: Relative cAMP EC50, hGIPR.

The target of assay [6] is T2, hGIPR. Put plainly: Functional cAMP activity in the presence of 1% HSA. The note with it: read-out: cAMP Rel EC50, hGIPR.
The mark [7] stands for this setting: in the presence of 0.1% casein (no HSA), geometric mean.

Where two headings read alike, the source gives them in different places. Starred links: 1 amine or outer side, 2 acyl side, 3 side chain; linkers in the order of their positions; H or OH if unused. Non-standard residues stand in square brackets, D forms with d. Residues, ends and D or L forms follow the SMILES beside them. Groups on a side chain read outwards from the residue. No end group written: not given here. *: point of attachment. C20 diacid = O=C(O)CCCCCCCCCCCCCCCCCCC(=O)*; C18 diacid = O=C(O)CCCCCCCCCCCCCCCCC(=O)*; αMePhe(2-F) = C[C@](N)(Cc1ccccc1F)C(=O)O; γGlu = O=C(O)[C@H](CCC(=O)[*:2])N[*:1]; αMe4Pal = C[C@](N)(Cc1ccncc1)C(=O)O; αMeY = C[C@](N)(Cc1ccc(O)cc1)C(=O)O; 4Pal = N[C@@H](Cc1ccncc1)C(=O)O; Aad = N[C@@H](CCCC(=O)O)C(=O)O; αMeL = CC(C)C[C@](C)(N)C(=O)O; Orn = NCCC[C@H](N)C(=O)O; AEEA = NCCOCCOCC(=O)O; Aib = CC(C)(N)C(=O)O
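For Relative cAMP EC50, hGIPR in this document: intracellular cAMP rise after 30 min at 37 °C read by HTRF against a standard curve, scaled between buffer alone (0%) and top control ligand concentration (100%), four-parameter fit.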
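For Relative cAMP EC50, hGLP-1R in this document: intracellular cAMP rise after 30 min at 37 °C read by HTRF, normalized between buffer only (0%) and maximal control ligand (100%), four-parameter variable-slope fit.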
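For Relative cAMP EC50, hGcgR in this document: intracellular cAMP rise after 30 min at 37 °C, read by HTRF against a cAMP standard curve, scaled from buffer only (0%) to maximal control ligand response (100%).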

T1 sequence (P43220 24-463): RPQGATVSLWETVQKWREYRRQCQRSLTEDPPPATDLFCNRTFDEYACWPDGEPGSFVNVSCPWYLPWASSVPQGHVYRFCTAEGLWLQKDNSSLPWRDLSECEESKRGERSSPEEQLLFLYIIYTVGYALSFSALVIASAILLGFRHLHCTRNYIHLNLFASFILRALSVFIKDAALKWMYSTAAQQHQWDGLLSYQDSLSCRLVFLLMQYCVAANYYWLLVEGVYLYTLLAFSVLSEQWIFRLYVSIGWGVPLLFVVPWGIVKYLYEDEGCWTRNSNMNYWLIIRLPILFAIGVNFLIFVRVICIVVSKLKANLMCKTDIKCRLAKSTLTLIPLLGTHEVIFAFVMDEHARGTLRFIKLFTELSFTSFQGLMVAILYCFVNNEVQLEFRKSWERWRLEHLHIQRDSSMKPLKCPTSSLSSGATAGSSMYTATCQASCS
Chain of human GcgR (P47871 26-477): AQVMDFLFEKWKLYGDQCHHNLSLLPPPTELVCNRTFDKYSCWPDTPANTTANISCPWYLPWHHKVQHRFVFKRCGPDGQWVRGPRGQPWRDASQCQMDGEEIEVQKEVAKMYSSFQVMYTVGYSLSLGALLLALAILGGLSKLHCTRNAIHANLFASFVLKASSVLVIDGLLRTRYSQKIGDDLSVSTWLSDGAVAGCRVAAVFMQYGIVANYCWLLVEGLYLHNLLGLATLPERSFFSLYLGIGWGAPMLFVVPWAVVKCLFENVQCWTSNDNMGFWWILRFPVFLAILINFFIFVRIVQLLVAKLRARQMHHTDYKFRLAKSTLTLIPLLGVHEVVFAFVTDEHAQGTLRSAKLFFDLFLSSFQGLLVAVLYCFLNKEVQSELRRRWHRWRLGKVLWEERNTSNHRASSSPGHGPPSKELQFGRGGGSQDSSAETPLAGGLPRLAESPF
Chain of hGcgR (P47871 26-477): as above

Regarding `CC[C@H](C)[C@H](NC(=O)[C@H](Cc1ccccc1)NC(=O)C(C)(C)NC(=O)C(C)(C)NC(=O)[C@H](CCC(N)=O)NC(=O)[C@H](C)NC(=O)[C@H](CCCCNC(=O)COCCOCCNC(=O)CC[C@H](NC(=O)CCCCCCCCCCCCCCCCCCC(=O)O)C(=O)O)NC(=O)[C@H](CCCN)NC(=O)[C@H](CC(=O)O)NC(=O)[C@H](CC(C)C)NC(=O)[C@](C)(CC(C)C)NC(=O)[C@@H](NC(=O)[C@H](CO)NC(=O)[C@H](Cc1ccncc1)NC(=O)[C@H](CC(=O)O)NC(=O)[C@H](CO)NC(=O)[C@@H](NC(=O)[C@](C)(Cc1ccccc1F)NC(=O)[C@@H](NC(=O)CNC(=O)[C@H](CCC(N)=O)NC(=O)C(C)(C)NC(=O)[C@@H](N)Cc1ccc(O)cc1)[C@@H](C)O)[C@@H](C)O)[C@@H](C)CC)C(=O)N[C@H](CCC(=O)O)C(=O)N[C@@](C)(Cc1ccc(O)cc1)C(=O)N[C@@H](CC(C)C)C(=O)N[C@@H](CC(C)C)C(=O)N[C@@H](CCC(=O)O)C(=O)NCC(=O)NCC(=O)N1CCC[C@H]1C(=O)N[C@@H](CO)C(=O)N[C@@H](CO)C(=O)NCC(=O)N[C@@H](CCC(=O)O)C(=O)N1CCC[C@H]1C(=O)N1CCC[C@H]1C(=O)N1CCC[C@H]1C(=O)N[C@@H](CO)C(N)=O` [Example 366], the EC50 came to 0.744 nM in assay [1] (setting [7]); 85.9 nM in assay [2]; 1830 nM in assay [3]; 4.51 nM in assay [4] (setting [7]); 0.024 nM in assay [5] (setting [7]); 4.27 nM in assay [6].

For “H-Y[Aib]QGTFTSDFS[Orn][αMeL]LDKK([AEEA-γGlu-C20 diacid])AQ[Aib]AFIEYLLAGGPSSGAPPPSEG-NH2 [Example 60]”, the EC50 came to 1.93 nM in assay [1] (setting [7]); 409 nM in assay [2]; 1210 nM in assay [3]; 8.96 nM in assay [4] (setting [7]); 0.135 nM in assay [5] (setting [7]); 33 nM in assay [6].

For the molecule “Y[Aib]QGT[αMePhe(2-F)]TSD[4Pal]SI[αMeL]LD[Orn]K([AEEA-γGlu-C18 diacid])AQ[αMe4Pal][Orn]FI[dE][αMeY]LIEGGPSSGDPPPESE-NH2 [Example 729]”, the EC50 in assay [1] stood at 0.288 nM; in assay [2], 27 nM; in assay [3] it was 276 nM; in assay [4], 2.11 nM; in assay [5] it was 0.0113 nM; in assay [6] it was 1.43 nM.

Take “H-Y[Aib]QGTFTSDFS[Orn][αMeL]LDKK([AEEA-AEEA-γGlu-C18 diacid])AQ[Aib]AFIEYLLE[dA]GPSSG[4Pal]PPPSG[4Pal]-NH2 [Example 258]”: the EC50 is 2.71 nM in assay [1] (setting [7]); 492 nM in assay [2]; 1280 nM in assay [3]; 7.15 nM in assay [4] (setting [7]); 0.154 nM in assay [5] (setting [7]); 23.3 nM in assay [6].

Consider “H-Y[Aib]QGTFTSD[4Pal]SQ[αMeL]LD[Orn]K([dE-γGlu-C18 diacid])AQ[αMe4Pal]QFIQ[αMeY]LIE[Aib]GPSSGEPPPSGGGE-NH2 [Example 1129]”, for which the EC50 was found to be 0.501 nM in assay [1] (setting [7]); 56.6 nM in assay [2]; 796 nM in assay [3]; 6.11 nM in assay [4] (setting [7]); 0.048 nM in assay [5] (setting [7]); 4.16 nM in assay [6].

As for “H-Y[Aib]QGTFTSDYSI[αMeL]LDKQAAK([AEEA-AEEA-γGlu-C20 diacid])QFIEWLIEGGPSSGEPPPGEG-NH2 [Example 318]”, the EC50 in assay [1] (setting [7]) came out at 0.698 nM; in assay [2], 111 nM; in assay [3], 1970 nM; in assay [4] (setting [7]), 5.03 nM; in assay [5] (setting [7]) it was 0.378 nM; in assay [6], 52.8 nM.

“Y[Aib]QGT[αMePhe(2-F)]TSD[4Pal]SILLDKK([γGlu-γGlu-C18 diacid])AQ[Aib]AFIEYL[Aad]EGGPSSGAPPPSGTGE-NH2 [Example 661]”: the EC50 turned out to be 1.13 nM in assay [1]; 50.9 nM in assay [2]; 160 nM in assay [3]; 1.78 nM in assay [4]; 0.0665 nM in assay [5]; 4.62 nM in assay [6].

For `CC[C@H](C)[C@H](NC(=O)[C@H](Cc1ccccc1)NC(=O)[C@H](C)NC(=O)C(C)(C)NC(=O)[C@H](CCC(N)=O)NC(=O)[C@H](C)NC(=O)[C@H](CCCCNC(=O)COCCOCCNC(=O)CC[C@H](NC(=O)CCCCCCCCCCCCCCCCC(=O)O)C(=O)O)NC(=O)[C@H](CCCCN)NC(=O)[C@H](CC(=O)O)NC(=O)[C@H](CC(C)C)NC(=O)[C@](C)(CC(C)C)NC(=O)[C@@H](NC(=O)[C@H](CO)NC(=O)[C@H](Cc1ccncc1)NC(=O)[C@H](CC(=O)O)NC(=O)[C@H](CO)NC(=O)[C@@H](NC(=O)[C@](C)(Cc1ccccc1F)NC(=O)[C@@H](NC(=O)CNC(=O)[C@H](CCC(N)=O)NC(=O)C(C)(C)NC(=O)[C@@H](N)Cc1ccc(O)cc1)[C@@H](C)O)[C@@H](C)O)[C@@H](C)CC)C(=O)N[C@@H](CCC(=O)O)C(=O)N[C@@H](Cc1ccc(O)cc1)C(=O)N[C@@H](CC(C)C)C(=O)N[C@@H](CCC(=O)O)C(=O)N[C@@H](CCC(=O)O)C(=O)NCC(=O)NCC(=O)N1CCC[C@H]1C(=O)N[C@@H](CO)C(=O)N[C@@H](CO)C(=O)NCC(=O)N[C@@H](C)C(=O)N1CCC[C@H]1C(=O)N1CCC[C@H]1C(=O)N1CCC[C@H]1C(=O)N[C@@H](CCC(=O)O)C(N)=O` [Example 445] (H-Y[Aib]QGT[αMePhe(2-F)]TSD[4Pal]SI[αMeL]LDKK([AEEA-γGlu-C18 diacid])AQ[Aib]AFIEYLEEGGPSSGAPPPE-NH2), the EC50 is 0.731 nM in assay [1]; 23.2 nM in assay [2]; 448 nM in assay [3]; 10.1 nM in assay [4]; 0.0206 nM in assay [5]; 2.41 nM in assay [6].

As to “Y[Aib]QGTFTSDFS[Orn][αMeL]LDKK([AEEA-γGlu-C18 diacid])AQ[Aib]AFIEWLLEGGHSSGAPPPGGE-NH2 [Example 273]”, the EC50 in assay [1] (setting [7]) is 4.02 nM; in assay [2] it was 516 nM; in assay [3], 1770 nM; in assay [4] (setting [7]) it was 6.96 nM; in assay [5] (setting [7]) it was 0.243 nM; in assay [6], 21.8 nM.

Turning to “H-Y[Aib]QGTFTSDFS[Orn][αMeL]LDKK([AEEA-AEEA-γGlu-C18 diacid])AQ[Aib]AFIEWLLEGGHSSGAPPPGGE-NH2 [Example 271]”, the EC50 was determined as 5 nM in assay [1] (setting [7]); 887 nM in assay [2]; 2680 nM in assay [3]; 8.51 nM in assay [4] (setting [7]); 0.152 nM in assay [5] (setting [7]); 15.7 nM in assay [6].

In the case of “H-Y[Aib]QGTFTSD[4Pal]SQ[αMeL]LDKK([AEEA-γGlu-C18 diacid])AQ[αMe4Pal]AFIEYLIE[Aib]GPSSGAPPPSG[4Pal]-NH2 [Example 835]”, the EC50 amounted to 2.84 nM in assay [1] (setting [7]); 274 nM in assay [2]; 558 nM in assay [3]; 3.83 nM in assay [4] (setting [7]); 0.382 nM in assay [5] (setting [7]); 16.8 nM in assay [6].
